Columns and labels:
[1] = tested on: patients (symptoms of the disease); experiment: comparison testing of symptom changes in patients treated with potassium citrate or potassium tartarate; assay type: in vivo, human; details: FIGS. 6 and 7; 4 patients per compound; base condition, 10th and 20th day
Text: The substitution of one or more components of the compound causes an inefficacy of the relevant different compound.
The graph of FIG. 6 is relevant to the changes in symptoms among 4 patients treated using potassium citrate, while the graph of FIG. 7 is relevant to the changes in symptoms among 4 patients treated using potassium tartarate. Similarly to the graph of FIG. 5, on abscissa each graph presents the different symptoms; from left to right-thoracic pain, abdominal pain, osteomuscular pain-dyspnea, cough, nausea, emesis, ascites, temperature, asthenia. The columns are composed by three secondary columns which refer to the different time of recording of the data, with 10 days interval; from left to right base condition (at the beginning of the treatment), at 10th day and at 20th day. Also in these cases the rate utilized as ordinate in the graph is relevant to the intensity (amount) of the symptoms.

[2] = stability of the salt (oxidizability); assay type: physicochemical; details: due to its easy oxidizability
[3] = water solubility of the salt; assay type: physicochemical
[4] = toxicity at the stated dosages; details: given the stated dosages; long-term use
[5] = tested on: patients suffering from different types of neoplasia in advanced phase; experiment: testing of potassium ribose ascorbate, given three times a day, in 30 terminally-ill neoplasia patients for more than ten years; assay type: in vivo, human
Method: In FIGS. 2-5 and 8-11 are shown the results of a testing carried out for more than ten years. The testing was carried out on a sample of 30 patients suffering from different types of neoplasia in advanced phase (terminally-ill patients).
The patients were given potassium ribose ascorbate three times a day.
The integrator of the present invention not only allows a good survival percentage but also improves the symptoms of the diseases. In FIG. 5 is a graph showing the changes in ten symptoms among the patients above mentioned. On abscissa the graph presents the different symptoms; from left to right thoracic pain, abdominal pain, osteomuscular pain, dyspnea, cough, nausea, emesis, ascites, temperature, asthenia. Every column is composed by five secondary columns which refer to the different time of recording of the data, with 15 days interval, from left to right: base condition (at the beginning of the treatment), at 15th day, at 30th day, at 45th and at 60th day The rate utilized as ordinate in the graph is relevant to the intensity (amount) of the symptoms. This rate is a normalized value among the different rates utilized for measuring the ten symptoms (i.e. degrees for the temperature, an objective value for pain, cough, etc). A higher rate means a higher means intensity of the symptom.
In particular, FIG.8 is relevant to the mean changes in the hemoglobin rate, in the graph, the abscissa is divided in steps corresponding to 15 days intervals, while the ordinate is expressed in g/dl. FIG. 9 is relevant to the mean changes in the white cells number; in the graph, the abscissa is divided in steps corresponding to 15 days intervals, while the ordinate is expressed in number of cells. FIG. 10 is relevant to the mean changes in the red cells number; in the graph, the abscissa is divided in steps corresponding to 15 days intervals, while the ordinate is expressed in thousands of cells. FIG. 11 is relevant to the mean changes in the erythrosedimentation rate at first hour; in the graph, the abscissa is divided in steps corresponding to 15 days intervals, while the ordinate is expressed in erythrosedimentation rate.

Compound: O=C([O-])CC(O)(CC(=O)[O-])C(=O)[O-].[K+].[K+].[K+] [potassium citrate]
- change in intensity of ten symptoms [1]: substantially increasing symptoms rate

Compound: O=C([O-])C(O)C(O)C(=O)[O-].[K+].[K+] (stereo not shown) [potassium tartarate]
- change in intensity of ten symptoms [1]: substantially increasing symptoms rate

Compound: potassium ribosate
- stability [2]: somewhat unstable
- solubility in water [3]: easily water-soluble
- toxicity [4]: does not produce any toxicity

Compound: potassium ribose ascorbate
- survival percentage after five years ([5]; FIG. 2, terminally-ill patients, by location of neoplasia: brain, breast, lung, ovary, prostate, skin): very high
- survival percentage after ten years ([5]; FIG. 3, terminally-ill patients, by location of neoplasia: brain, breast, lung, ovary, prostate, skin): very high
- change in intensity of ten symptoms (thoracic, abdominal, osteomuscular pain, dyspnea, cough, nausea, emesis, ascites, temperature, asthenia) ([5]; FIG. 5, normalized rate, base condition, 15th, 30th, 45th and 60th day): all symptoms decreased
- mean changes in the hemoglobin rate ([5]; FIG. 8, 15 days intervals, ordinate in g/dl): increasing rates
- mean changes in the white cells number ([5]; FIG. 9, 15 days intervals, ordinate in number of cells): increasing rates
- mean changes in the red cells number ([5]; FIG. 10, 15 days intervals, ordinate in thousands of cells): increasing rates
- mean changes in the erythrosedimentation rate at first hour ([5]; FIG. 11, 15 days intervals): decreasing rate
- stability [2]: somewhat unstable
